Source: patent publication US10766883B2, “Aminopyrazoles as janus kinase inhibitors” (Merck Sharp & Dohme Corp., priority 2016, dated 2020)
Where two headings read alike, the source gives them in different places.

Assays:
[1] = molecular target: JAK1 (Homo sapiens (Human), UniProt P23458); assay: JAK biochemical HTRF enzyme assay, JAK1
Experimental: (§1) The ability of compounds to inhibit the activity of JAK1, JAK2, JAK3, and Tyk2 was measured using a recombinant purified GST-tagged catalytic domain for each enzyme (InVitrogen/Life Technologies/ThermoFisher Scientific Inc., Waltham, Mass., USA; catalogue numbers: M4290(JAK1), M4290(JAK2), M4290(JAK3), M4290(Tyk2)) in an HTRF format biochemical assay.
(§2) Subsequent reagent additions employed an Agilent™ Bravo™ liquid handling system (Aligent Technologies, Santa Clara, Calif., USA). […] After equilibration, 2 μL of 10×ATP in 1× assay buffer was added to initiate the kinase reaction and the plates were shaken and then incubated at ambient temperature for 120 minutes. […] After normalization to untreated controls, the percent inhibition of the HTRF signal at each compound concentration was calculated. The plot of percent inhibition versus the log of compound concentration was fit with a 4-parameter dose response equation to calculate IC50 values.

[2] = molecular target: JAK3 (Homo sapiens (Human), UniProt P52333); assay: JAK biochemical HTRF enzyme assay, JAK3; conditions: reference compound, mean +/- spread across assay runs
Sequence of JAK3 (P52333 822-1111): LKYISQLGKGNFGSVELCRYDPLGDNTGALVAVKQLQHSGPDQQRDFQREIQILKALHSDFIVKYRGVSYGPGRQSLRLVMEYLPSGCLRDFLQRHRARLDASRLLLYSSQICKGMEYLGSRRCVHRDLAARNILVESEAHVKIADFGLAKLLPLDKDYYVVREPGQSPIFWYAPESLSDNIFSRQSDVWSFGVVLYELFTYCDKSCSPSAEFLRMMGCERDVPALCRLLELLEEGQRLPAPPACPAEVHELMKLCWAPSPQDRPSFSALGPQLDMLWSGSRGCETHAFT
Experimental: as §1, with “assay. The reactions employed a common peptide substrate, LCB-[…]-NH2 (Merck Sharp & Dohme, Kenilworth, N.J., USA).” for “assay.”
(§3) The basic assay protocol is as follows: First, 250 nL of diluted compounds in DMSO were dispensed into the wells of a dry 384-well Black plate (GreinerFluotrac™ catalog number: 781076; Greiner Bio-One GmbH, Frickenhausen, Germany) using a Labcyte Echo® 555 acoustic dispenser (Clarcyte, Inc, Sunnyvale, Calif., USA). Subsequent reagent additions employed an Agilent™ Bravo™ liquid handling system (Aligent Technologies, Santa Clara, Calif., USA). […] After equilibration, 2 μL of 10×ATP in 1× assay buffer was added to initiate the kinase reaction and the plates were shaken and then incubated at ambient temperature for 120 minutes. […] HTRF signal=10,000*665 nm reading/615 nm reading. After normalization to untreated controls, the percent inhibition of the HTRF signal at each compound concentration was calculated. […]

[3] = test system: Interleukin 4 (IL4)—JAK1/JAK3—STAT6 Pathway; assay: IL4 CellSensor beta-lactamase reporter assay (STAT6-bla RA-1 cells); type: cell-based; conditions: reference compound, mean +/- spread across assay runs
Description: (§4) Inhibition of the activity of JAK kinases (JAK1, JAK2, JAK3 and TYK2) in intact cells was quantified in antagonist mode using CellSensor® transcriptional reporter technology (Life Technologies/ThermoFisher Scientific Inc., Waltham, Mass., USA; https://www.thermofisher.com/us/en/home/industrial/pharma-biopharma drug-discovery-development/target-and-lead-identification-and-validation/pathway-biology/cellular-pathway-analysis/cellsensor-cell-lines.html), in three independent cell lines engineered to detect IL4, IL6 and EPO signaling. In brief, CellSensor® cell lines (see details below for each assay) carrying a stably integrated β-Lactamase reporter gene under control of specific cis-regulatory STAT elements responsive to the pathway being monitored were pre-treated with test compounds serially diluted in DMSO (see preparation and dosing of compounds and agonist cytokines section). Following incubation with compounds, IL4, IL6, or EPO were added to each cognate cell line at a concentration equal to a dose necessary to achieve 80% of the maximal response (EC80).
(§5) Incubation with compounds, cytokines and LiveBLAzer™ were carried out at 37° C. in a tissue culture incubator maintained at 90% humidity and 5% CO2.
Interleukin 4 (IL4)—JAK1/JAK3—STAT6 Pathway […]

[4] = molecular target: Tyk2 (Homo sapiens (Human), UniProt P29597); assay: JAK biochemical HTRF enzyme assay, Tyk2; conditions: reference compound, mean +/- spread across assay runs
Sequence of Tyk2 (P29597 897-1176): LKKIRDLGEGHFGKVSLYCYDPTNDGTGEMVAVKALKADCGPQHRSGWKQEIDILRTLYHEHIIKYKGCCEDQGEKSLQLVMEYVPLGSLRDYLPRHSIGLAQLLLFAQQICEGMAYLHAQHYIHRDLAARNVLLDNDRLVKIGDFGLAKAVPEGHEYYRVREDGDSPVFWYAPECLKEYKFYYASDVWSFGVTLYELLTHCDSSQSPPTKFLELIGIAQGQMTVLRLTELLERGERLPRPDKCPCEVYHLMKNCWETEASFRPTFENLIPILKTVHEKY
Experimental: as §1, with “assay. The reactions employed a common peptide substrate, LCB-[…]-NH2 (Merck Sharp & Dohme, Kenilworth, N.J., USA).” for “assay.”
as §3

[5] = test system: EPO/Jak2/Stat5 pathway; assay: EPO CellSensor beta-lactamase reporter assay (irf1-bla TF-1 cells); type: cell-based, human; conditions: for IC50: Homo sapiens; for EPO/IL-6: ratio EPO IP / IL-6 IP
Description: as §4, with “section).” for “section). Following incubation with compounds, IL4, IL6, or EPO were added to each cognate cell line at a concentration equal to a dose necessary to achieve 80% of the maximal response (EC80).”
as §5
Erythropoietin (EPO)—JAK2—STAT5 Pathway
CellSensor irf1-bla TF-1 cells carry a stably integrated β-Lactamase reporter gene under control of the STAT5 Response Elements present in the Interferon Regulatory Factor I (IRF1) gene promoter.
(§6) Each CellSensor® cell line was subsequently plated as per supplier's instructions (30,000 cells in 32 μL/well) and mixed with the compound. Following a 60 minute incubation, cells were subsequently stimulated by addition of 8 μL of cognate cytokine (EC80 dose of IL4, IL6 and EPO) and incubated for an additional 3 hours, before adding LiveBLAzer™-FRET B/G substrate.
(§7) The IL-6 assay identifies agents that inhibit the beta-lactamase reporter activity initiated through stimulation of the IL-6R/JAK1/2/Stat3 pathway with recombinant human IL-6. The EPO assay identifies agents that inhibit the beta-lactamase reporter activity initiated through stimulation of the EPO/Jak2/Stat5 pathway with human EPO. Inhibition of EPO signaling leads to an inability to recover from anemia of chronic disease. […] That is, it is desirable for the EPO/IL-6 IC50 ratios to be a relatively large number.

[6] = test system: IL-6R/JAK1/2/Stat3 pathway; assay: IL6 CellSensor beta-lactamase reporter assay (SIE-bla ME-180 cells); type: cell-based; conditions: Homo sapiens
Description: as §4, with “section).” for “section). Following incubation with compounds, IL4, IL6, or EPO were added to each cognate cell line at a concentration equal to a dose necessary to achieve 80% of the maximal response (EC80).”
as §5
Interleukin 6 (IL6)—JAK1/JAK2—STAT4 Pathway
CellSensor™ SIE-bla ME-180 cells carrying a stably integrated β-Lactamase reporter gene under control of the Sis-Inducible Element (SIE).
as §6, §7

[7] = molecular target: JAK2 (Homo sapiens (Human), UniProt O60674); assay: JAK biochemical HTRF enzyme assay, JAK2; conditions: for JAK2/1: ratio JAK2 IC50 / JAK1 IC50
Sequence of JAK2 (O60674 849-1124): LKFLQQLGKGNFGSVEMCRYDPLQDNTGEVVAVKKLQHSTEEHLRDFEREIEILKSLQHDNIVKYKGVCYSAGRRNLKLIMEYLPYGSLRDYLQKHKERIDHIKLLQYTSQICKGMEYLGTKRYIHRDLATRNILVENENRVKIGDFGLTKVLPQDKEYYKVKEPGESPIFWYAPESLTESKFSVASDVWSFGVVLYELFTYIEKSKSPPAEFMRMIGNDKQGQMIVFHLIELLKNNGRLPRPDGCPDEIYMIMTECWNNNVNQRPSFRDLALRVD
Experimental: as §1, §2

[8] = reference compound, mean +/- spread across assay runs
[9] = irf1-bla TF-1 cells, EPO at EC80, read-out: EPO IP
[10] = SIE-bla ME-180 cells, IL6 at EC80, read-out: IL-6 IP
[11] = HTRF, GST-tagged catalytic domain, ATP 31.8 μM
[12] = HTRF, GST-tagged catalytic domain, ATP 8.5 μM

Sequence of JAK1 (P23458 875-1153): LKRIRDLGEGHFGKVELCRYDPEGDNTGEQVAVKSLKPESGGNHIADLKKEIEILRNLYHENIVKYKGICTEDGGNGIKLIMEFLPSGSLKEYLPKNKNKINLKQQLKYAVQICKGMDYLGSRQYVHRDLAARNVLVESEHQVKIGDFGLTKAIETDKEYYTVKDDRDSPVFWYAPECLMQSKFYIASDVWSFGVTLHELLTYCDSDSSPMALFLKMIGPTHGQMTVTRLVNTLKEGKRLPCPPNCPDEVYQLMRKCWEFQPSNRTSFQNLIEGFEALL

`CN(C)[C@H]1CC[C@H](n2cc(C(N)=O)c(Nc3ccc(Cl)cc3)n2)[C@@H](C#N)C1` (single isomer, unassigned) [Reference Compound No. 1, 3-[(4-chlorophenyl)amino]-1-[(1S,2S,4S or 1R,2R,4R)-2-cyano-4-(dimethylamino)cyclohexyl]-1H-pyrazole-4-carboxamide] showed an IC50 [1, 8] of 1.47 nM, an IC50 [2] of 1350 nM and an IC50 [3] of 25.7 nM. It also gave an IC50 [4] of 14 nM.
With `N#C[C@H]1CCOC[C@@H]1n1cc(C(N)=O)c(Nc2ccc(Cl)cc2)n1` [Comp. Ex-1, reference compound] the IC50 [5, 9] was 132 nM and the EPO/IL-6 [5] was 9.
Molecule `N#C[C@H]1CCOC[C@@H]1n1cc(C(N)=O)c(Nc2ccc(Cl)c(Cl)c2)n1` [Comp. Ex-2, reference compound] has an IC50 [5, 9] of 2170 nM, an EPO/IL-6 [5] of 31 and an IC50 [6, 10] of 69 nM.
Molecule `N#C[C@H]1CCOC[C@@H]1n1cc(C(N)=O)c(Nc2ccc(OC(F)(F)F)cc2)n1` [Comp. Ex-3, reference compound] has an IC50 [5, 9] of 80 nM, an EPO/IL-6 [5] of 6 and an IC50 [6, 10] of 14 nM.
In the case of `N#Cc1ccc(Nc2nn([C@H]3COCC[C@@H]3C#N)cc2C(N)=O)cc1` [Comp. Ex-4, reference compound], the IC50 [5, 9] is reported as 89 nM, the EPO/IL-6 [5] is reported as 6 and the IC50 [6, 10] is reported as 14 nM.
`COc1cc(Nc2nn([C@H]3COCC[C@@H]3C#N)cc2C(N)=O)ccc1Cl` [Ex-1, 3-((4-Chloro-3-methoxyphenyl)amino)-1-((3R,4S)-4-cyanotetrahydro-2H-pyran-3-yl)-1H-pyrazole-4-carboxamide] was tested, and the IC50 [1, 11] was 0.12 nM, the IC50 [5, 9] was 280 nM and the EPO/IL-6 [5] was 19. The IC50 [6, 10] was 15 nM, the IC50 [7, 12] was 3.88 nM and the JAK2/1 [7] was 32.
`CSc1cc(Nc2nn([C@H]3COCC[C@@H]3C#N)cc2C(N)=O)ccc1Cl` [Ex-2, 3-((4-chloro-3-(methylthio)phenyl)amino)-1-((3R,4S)-4-cyanotetrahydro-2H-pyran-3-yl)-1H-pyrazole-4-carboxamide] showed an IC50 [1, 11] of 0.25 nM, an IC50 [5, 9] of 649 nM and an EPO/IL-6 [5] of 30. It also gave an IC50 [6, 10] of 22 nM, an IC50 [7, 12] of 5.48 nM and a JAK2/1 [7] of 22.
Molecule `COc1cc(Nc2nn([C@H]3COCC[C@@H]3C#N)cc2C(N)=O)ccc1C#N` [Ex-3, 3-((4-cyano-3-methoxyphenyl)amino)-1-((3R,4S)-4-cyanotetrahydro-2H-pyran-3-yl)-1H-pyrazole-4-carboxamide] has an IC50 [1, 11] of 0.07 nM, an IC50 [5, 9] of 431 nM and an EPO/IL-6 [5] of 23. The IC50 [6, 10] was 19 nM, the IC50 [7, 12] was 3.28 nM and the JAK2/1 [7] was 49.
With `CC(C)c1cc(Nc2nn([C@H]3COCC[C@@H]3C#N)cc2C(N)=O)ccc1C#N` [Ex-4, 3-((4-cyano-3-isopropylphenyl)amino)-1-((3R,4S)-4-cyanotetrahydro-2H-pyran-3-yl)-1H-pyrazole-4-carboxamide] the IC50 [1, 11] was 0.49 nM, the IC50 [5, 9] was 744 nM and the EPO/IL-6 [5] was 16. It also gave an IC50 [6, 10] of 47 nM, an IC50 [7, 12] of 9.7 nM and a JAK2/1 [7] of 20.
In the case of `Cc1noc2ccc(Nc3nn([C@H]4COCC[C@@H]4C#N)cc3C(N)=O)cc12` [Ex-5, 1-((3R,4S)-4-cyanotetrahydro-2H-pyran-3-yl)-3-((3-methylbenzo[d]isoxazol-5-yl)amino)-1H-pyrazole-4-carboxamide], the IC50 [1, 11] is reported as 0.16 nM, the IC50 [5, 9] is reported as 309 nM and the EPO/IL-6 [5] is reported as 18. The IC50 [6, 10] was 17 nM, the IC50 [7, 12] was 3.04 nM and the JAK2/1 [7] was 19.
Work on `CS(=O)(=O)c1ccc(Nc2nn([C@H]3CCCC[C@@H]3C#N)c3cc[nH]c(=O)c23)cc1` [Reference Compound No. 2, (1S,2S)-2-(3-{[4-(methylsulfonyl)phenyl]amino}-4-oxo-4,5-dihydro-1H-pyrazolo[4,3-c]pyridin-1-yl)cyclohexanecarbonitrile, reference compound] yielded an IC50 [1, 8] of 0.17 nM, an IC50 [2] of 21.9 nM and an IC50 [3] of 11.1 nM. For the same molecule, the IC50 ([5]; TF-1, reference compound, mean +/- spread across assay runs, read-out: EPO CellSensor assay IC50) was 39.5 nM, the “potency spread across the IL6, EPO and IL4 CellSensor assays” value ([5]; across all three CellSensor assays) was “two to three” and the IC50 [4] was 0.28 nM. The IC50 ([6]; ME-180, reference compound, mean +/- spread across assay runs, read-out: IL6 CellSensor assay IC50) was 21 nM and the IC50 [7, 8] was 1 nM.
